From ChEMBL document CHEMBL2413072, “Synthesis and in vitro anticancer studies of novel C-2 arylidene congeners of lantadenes” (2013)

Assays:
Type in all cases: functional
[1] = system: MCF7; test: Growth inhibition of human MCF7 cells assessed as cell growth at 10^-6 M by sulforhodamine B assay; details: read-out: Activity
[2] = system: OVCAR-4; test: Growth inhibition of human OVCAR4 cells assessed as cell growth at 10^-7 M by sulforhodamine B assay; details: read-out: Activity
[3] = system: SF-539; test: Growth inhibition of human SF539 cells assessed as cell growth at 10^-7 M by sulforhodamine B assay; details: read-out: Activity
[4] = system: HCT-116; test: Growth inhibition of human HCT116 cells assessed as cell growth at 10^-4 M by sulforhodamine B assay; details: read-out: Activity
[5] = system: RPMI-8226; test: Growth inhibition of human RPMI8226 cells assessed as cell growth at 10^-7 M by sulforhodamine B assay; details: read-out: Activity
[6] = system: NCI-H226; test: Growth inhibition of human NCI-H226 cells assessed as cell growth at 10^-8 M by sulforhodamine B assay; details: read-out: Activity
[7] = system: MDA-MB-435; test: Growth inhibition of human MDA-MB-435 cells assessed as cell growth at 10^-4 M by sulforhodamine B assay; details: read-out: Activity
[8] = system: T47D; test: Growth inhibition of human T47D cells assessed as cell growth at 10^-6 M by sulforhodamine B assay; details: read-out: Activity
[9] = system: CCRF-CEM; test: Growth inhibition of human CCRF-CEM cells assessed as cell growth at 10^-8 M by sulforhodamine B assay; details: read-out: Activity
[10] = system: COLO 205; test: Growth inhibition of human COLO205 cells assessed as cell growth at 10^-7 M by sulforhodamine B assay; details: read-out: Activity
[11] = system: NCI-H522; test: Growth inhibition of human NCI-H522 cells assessed as cell growth at 10^-6 M by sulforhodamine B assay; details: read-out: Activity
[12] = system: RXF 393; test: Growth inhibition of human RXF393 cells assessed as cell growth at 10^-4 M by sulforhodamine B assay; details: read-out: Activity
[13] = system: T47D; test: Growth inhibition of human T47D cells assessed as cell growth at 10^-7 M by sulforhodamine B assay; details: read-out: Activity
[14] = system: SF-268; test: Growth inhibition of human SF268 cells assessed as cell growth at 10^-4 M by sulforhodamine B assay; details: read-out: Activity
[15] = system: SF-539; test: Growth inhibition of human SF539 cells by sulforhodamine B assay
[16] = system: SW-620; test: Growth inhibition of human SW620 cells assessed as cell growth at 10^-4 M by sulforhodamine B assay; details: read-out: Activity
[17] = system: OVCAR-8; test: Growth inhibition of human OVCAR8 cells assessed as cell growth at 10^-4 M by sulforhodamine B assay; details: read-out: Activity
[18] = system: HT-29; test: Growth inhibition of human HT-29 cells by sulforhodamine B assay
[19] = system: RPMI-8226; test: Growth inhibition of human RPMI8226 cells assessed as cell growth at 10^-6 M by sulforhodamine B assay; details: read-out: Activity
[20] = system: MOLT-4; test: Growth inhibition of human MOLT4 cells assessed as cell growth at 10^-8 M by sulforhodamine B assay; details: read-out: Activity
[21] = system: KM12; test: Growth inhibition of human KM12 cells assessed as cell growth at 10^-4 M by sulforhodamine B assay; details: read-out: Activity
[22] = system: ACHN; test: Growth inhibition of human ACHN cells assessed as cell growth at 10^-8 M by sulforhodamine B assay; details: read-out: Activity
[23] = system: BT-549; test: Growth inhibition of human BT549 cells assessed as cell growth at 10^-7 M by sulforhodamine B assay; details: read-out: Activity
[24] = system: SN12C; test: Growth inhibition of human SN12C cells assessed as cell growth at 10^-6 M by sulforhodamine B assay; details: read-out: Activity
[25] = system: SNB-75; test: Growth inhibition of human SNB75 cells assessed as cell growth at 10^-7 M by sulforhodamine B assay; details: read-out: Activity
[26] = system: IGROV-1; test: Growth inhibition of human IGROV1 cells assessed as cell growth at 10^-6 M by sulforhodamine B assay; details: read-out: Activity
[27] = system: UACC-62; test: Growth inhibition of human UACC62 cells assessed as cell growth at 10^-6 M by sulforhodamine B assay; details: read-out: Activity
[28] = system: MCF7; test: Growth inhibition of human MCF7 cells assessed as cell growth at 10^-4 M by sulforhodamine B assay; details: read-out: Activity
[29] = Growth inhibition of human NCI-ADR-RES cells assessed as cell growth at 10^-7 M by sulforhodamine B assay; details: read-out: Activity
[30] = system: OVCAR-5; test: Growth inhibition of human OVCAR5 cells assessed as cell growth at 10^-4 M by sulforhodamine B assay; details: read-out: Activity
[31] = system: OVCAR-4; test: Growth inhibition of human OVCAR4 cells by sulforhodamine B assay
[32] = system: OVCAR-8; test: Growth inhibition of human OVCAR8 cells by sulforhodamine B assay
[33] = system: SW-620; test: Growth inhibition of human SW620 cells by sulforhodamine B assay
[34] = system: OVCAR-3; test: Growth inhibition of human OVCAR3 cells assessed as cell growth at 10^-6 M by sulforhodamine B assay; details: read-out: Activity
[35] = system: SF-268; test: Growth inhibition of human SF268 cells by sulforhodamine B assay
[36] = system: PC-3; test: Growth inhibition of human PC3 cells assessed as cell growth at 10^-6 M by sulforhodamine B assay; details: read-out: Activity
[37] = system: HCT-15; test: Growth inhibition of human HCT15 cells assessed as cell growth at 10^-6 M by sulforhodamine B assay; details: read-out: Activity
[38] = system: SNB-19; test: Growth inhibition of human SNB19 cells assessed as cell growth at 10^-6 M by sulforhodamine B assay; details: read-out: Activity
[39] = system: OVCAR-4; test: Growth inhibition of human OVCAR4 cells assessed as cell growth at 10^-6 M by sulforhodamine B assay; details: read-out: Activity
[40] = Growth inhibition of human Hs 578T cells assessed as cell growth at 10^-6 M by sulforhodamine B assay; details: read-out: Activity
[41] = system: SF-295; test: Growth inhibition of human SF295 cells by sulforhodamine B assay
[42] = system: M14; test: Growth inhibition of human M14 cells assessed as cell growth at 10^-8 M by sulforhodamine B assay; details: read-out: Activity
[43] = read-out: LC50 (the source's name)
[44] = read-out: pLC50 (the source's name) (converted)

Work on C/C=C(/C)C(=O)O[C@@H]1CC(C)(C)C[C@H]2C3=CC[C@@H]4[C@@]5(C)CC[C@H](O)C(C)(C)[C@@H]5CC[C@@]4(C)[C@]3(C)CC[C@@]12C(=O)O [Reduced Lantadene A] yielded a growth at 1 µM [1] of 88%, a growth at 0.1 µM [2] of 99% and a growth at 0.1 µM [3] of 103%. It also gave a growth at 100 µM [4] of -62%, a growth at 0.1 µM [5] of 92% and a growth at 0.01 µM [6] of 91%. It also gave a growth at 100 µM [7] of -47%, a growth at 1 µM [8] of 96% and a growth at 0.01 µM [9] of 98%. It also gave a growth at 0.1 µM [10] of 107%, a growth at 1 µM [11] of 93% and a growth at 100 µM [12] of -76%. It also gave a growth at 0.1 µM [13] of 104%, a growth at 100 µM [14] of -34% and a GI50 ([15]; read-out: GI50) of 3.37 µM. It also gave a CC50 [15, 43] of 56.3 µM, a TGI ([15]; read-out: TGI) of 11.4 µM and a GI50 ([15]; read-out: pGI50 (converted)) of 3.39 µM. It also gave a CC50 [15, 44] of 56.2 µM, a TGI ([15]; read-out: pTGI (converted)) of 11.5 µM and a growth at 100 µM [16] of -32%. For the same molecule, the growth at 100 µM [17] was -39%, the GI50 ([18]; read-out: GI50) was 2.16 µM and the LC50 (50% cell kill) ([18]; read-out: LC50) was 8.77 µM. The TGI ([18]; read-out: TGI) was 4.35 µM, the GI50 ([18]; read-out: pGI50 (converted)) was 2.14 µM and the LC50 (50% cell kill) ([18]; read-out: pLC50 (converted)) was 8.71 µM. For the same molecule, the TGI ([18]; read-out: pTGI (converted)) was 4.37 µM, the growth at 1 µM [19] was 70% and the growth at 0.01 µM [20] was 103%. It also gave a growth at 100 µM [21] of -29%, a growth at 0.01 µM [22] of 105% and a growth at 0.1 µM [23] of 100%. For the same molecule, the growth at 1 µM [24] was 83%, the growth at 0.1 µM [25] was 78% and the growth at 1 µM [26] was 111%. The growth at 1 µM [27] was 78%, the growth at 100 µM [28] was -39% and the growth at 0.1 µM [29] was 105%. It also gave a growth at 100 µM [30] of -73%, a GI50 ([31]; read-out: GI50) of 1.77 µM and a TGI ([31]; read-out: TGI) of 3.74 µM. The GI50 ([31]; read-out: pGI50 (converted)) was 1.78 µM, the TGI ([31]; read-out: pTGI (converted)) was 3.72 µM and the GI50 ([32]; read-out: GI50) was 1.92 µM. For the same molecule, the TGI ([32]; read-out: TGI) was 3.87 µM, the GI50 ([32]; read-out: pGI50 (converted)) was 1.91 µM and the TGI ([32]; read-out: pTGI (converted)) was 3.89 µM. For the same molecule, the GI50 ([33]; read-out: GI50) was 2.31 µM, the CC50 [33, 43] was > 100 µM and the TGI ([33]; read-out: TGI) was 6.62 µM. The GI50 ([33]; read-out: pGI50 (converted)) was 2.29 µM, the CC50 [33, 44] was > 100 µM and the TGI ([33]; read-out: pTGI (converted)) was 6.61 µM. The growth at 1 µM [34] was 104%, the GI50 ([35]; read-out: GI50) was 2.16 µM and the TGI ([35]; read-out: TGI) was 4.42 µM. The GI50 ([35]; read-out: pGI50 (converted)) was 2.14 µM, the TGI ([35]; read-out: pTGI (converted)) was 4.47 µM and the growth at 1 µM [36] was 70%. It also gave a growth at 1 µM [37] of 82%, a growth at 1 µM [38] of 85% and a growth at 1 µM [39] of 88%. It also gave a growth at 1 µM [40] of 92%, a GI50 ([41]; read-out: GI50) of 1.62 µM and a CC50 [41, 43] of 7.74 µM. For the same molecule, the TGI ([41]; read-out: TGI) was 3.54 µM, the GI50 ([41]; read-out: pGI50 (converted)) was 1.62 µM and the CC50 [41, 44] was 7.76 µM. It also gave a TGI ([41]; read-out: pTGI (converted)) of 3.55 µM and a growth at 0.01 µM [42] of 100%.
